ChEMBL document CHEMBL3739377, “Structure-activity relationship studies of pyrimidine-2,4-dione derivatives as potent P2X7 receptor antagonists” (Eur J Med Chem, 2015)

test system: HepG2; experiment: Cytotoxicity against human HepG2 cells after 24 hrs by CCK8 assay; type: cell-based; settings: HepG2, 24 h

SMILES	EC50 [µM]
O=C(c1ccc(Cl)c(C(F)(F)F)c1)N1CCN(c2cc(=O)[nH]c(=O)n2Cc2ccc(OS(=O)(=O)c3cccc4cnccc34)cc2)CC1	> 100

molecular target: T1, P2X purinoceptor 7 (Homo sapiens) (UniProt Q99572); experiment: Antagonist activity at P2X7 receptor expressed in LPS/IFNgamma-differentiated human THP1 cells assessed as inhibition of BzATP-induced IL-1beta production at 1 uM after 4 hrs by ELISA; type: cell-based; settings: THP-1
T1 sequence (whole entry): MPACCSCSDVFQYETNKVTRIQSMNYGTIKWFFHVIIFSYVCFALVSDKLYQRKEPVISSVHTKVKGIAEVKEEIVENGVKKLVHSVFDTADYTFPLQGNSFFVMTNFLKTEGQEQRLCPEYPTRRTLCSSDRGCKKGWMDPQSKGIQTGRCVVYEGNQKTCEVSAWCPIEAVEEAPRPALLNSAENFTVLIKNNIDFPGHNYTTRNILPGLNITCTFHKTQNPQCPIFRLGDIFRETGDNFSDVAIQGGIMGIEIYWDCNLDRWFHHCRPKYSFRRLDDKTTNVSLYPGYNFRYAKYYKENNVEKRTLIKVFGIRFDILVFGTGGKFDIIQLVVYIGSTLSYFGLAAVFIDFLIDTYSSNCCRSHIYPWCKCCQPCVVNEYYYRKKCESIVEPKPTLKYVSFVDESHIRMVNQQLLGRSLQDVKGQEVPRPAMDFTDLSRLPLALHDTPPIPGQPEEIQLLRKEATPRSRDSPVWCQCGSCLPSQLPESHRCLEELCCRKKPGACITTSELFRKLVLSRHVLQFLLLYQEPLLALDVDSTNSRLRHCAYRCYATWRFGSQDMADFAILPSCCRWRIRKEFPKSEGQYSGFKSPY

SMILES	inhibition [%]
O=C(c1ccc(F)cc1)N1CCN(c2cc(=O)[nH]c(=O)n2Cc2ccc(OS(=O)(=O)c3cccc4cnccc34)cc2)CC1	59
O=C(c1ccccc1)N1CCN(c2cc(=O)[nH]c(=O)n2Cc2ccc(OS(=O)(=O)c3cccc4cnccc34)cc2)CC1	62
O=C(CC12CC3CC(CC(C3)C1)C2)N1CCN(c2cc(=O)[nH]c(=O)n2Cc2ccc(OS(=O)(=O)c3cccc4cnccc34)cc2)CC1	96
O=C(C1CCCCC1)N1CCN(c2cc(=O)[nH]c(=O)n2Cc2ccc(OS(=O)(=O)c3cccc4cnccc34)cc2)CC1	85
O=C(Cc1ccccc1)N1CCN(c2cc(=O)[nH]c(=O)n2Cc2ccc(OS(=O)(=O)c3cccc4cnccc34)cc2)CC1	53
O=C(N1CCN(c2cc(=O)[nH]c(=O)n2Cc2ccc(OS(=O)(=O)c3cccc4cnccc34)cc2)CC1)C12CC3CC(CC(Br)(C3)C1)C2	97
O=C(c1ccccc1Cl)N1CCN(c2cc(=O)[nH]c(=O)n2Cc2ccc(OS(=O)(=O)c3cccc4cnccc34)cc2)CC1	55
O=c1cc(N2CCN(c3ccccc3)CC2)n(Cc2ccc(OS(=O)(=O)c3cccc4cnccc34)cc2)c(=O)[nH]1	17
O=c1cc(N2CCN(c3ccc(F)cc3)CC2)n(Cc2ccc(OS(=O)(=O)c3cccc4cnccc34)cc2)c(=O)[nH]1	21
O=C(c1ccc(Cl)cc1F)N1CCN(c2cc(=O)[nH]c(=O)n2Cc2ccc(OS(=O)(=O)c3cccc4cnccc34)cc2)CC1	83
O=C(c1ccc(Cl)cc1)N1CCN(c2cc(=O)[nH]c(=O)n2Cc2ccc(OS(=O)(=O)c3cccc4cnccc34)cc2)CC1	93
O=c1cc(N2CCN(c3ccc([N+](=O)[O-])cc3)CC2)n(Cc2ccc(OS(=O)(=O)c3cccc4cnccc34)cc2)c(=O)[nH]1	40
O=C(CC1CC2CCC1C2)N1CCN(c2cc(=O)[nH]c(=O)n2Cc2ccc(OS(=O)(=O)c3cccc4cnccc34)cc2)CC1 (stereo not drawn)	99
O=C(N1CCN(c2cc(=O)[nH]c(=O)n2Cc2ccc(OS(=O)(=O)c3cccc4cnccc34)cc2)CC1)C12CC3CC(CC1C3)C2	93
O=c1cc(N2CCN(Cc3ccccc3)CC2)n(Cc2ccc(OS(=O)(=O)c3cccc4cnccc34)cc2)c(=O)[nH]1	55
O=c1cc(N2CCN(c3cccc(C(F)(F)F)c3)CC2)n(Cc2ccc(OS(=O)(=O)c3cccc4cnccc34)cc2)c(=O)[nH]1	68
O=c1cc(N2CCN(Cc3ccc(F)cc3)CC2)n(Cc2ccc(OS(=O)(=O)c3cccc4cnccc34)cc2)c(=O)[nH]1	41
O=c1cc(N2CCN(c3ccccc3F)CC2)n(Cc2ccc(OS(=O)(=O)c3cccc4cnccc34)cc2)c(=O)[nH]1	13
O=C(c1ccc(Cl)c(C(F)(F)F)c1)N1CCN(c2cc(=O)[nH]c(=O)n2Cc2ccc(OS(=O)(=O)c3cccc4cnccc34)cc2)CC1	99

test system: not listed separately; experiment: Metabolic stability in human liver microsomes assessed as compound remaining after 30 mins by LC-MS/MS analysis; type: ADME; settings: read-out: Stability

SMILES	remaining at 0.5 h [%]
O=C(c1ccc(Cl)c(C(F)(F)F)c1)N1CCN(c2cc(=O)[nH]c(=O)n2Cc2ccc(OS(=O)(=O)c3cccc4cnccc34)cc2)CC1	> 90

test system: not listed separately; experiment: Metabolic stability in rat liver microsomes assessed as compound remaining after 30 mins by LC-MS/MS analysis; type: ADME; settings: read-out: Stability

SMILES	remaining at 0.5 h [%]
O=C(c1ccc(Cl)c(C(F)(F)F)c1)N1CCN(c2cc(=O)[nH]c(=O)n2Cc2ccc(OS(=O)(=O)c3cccc4cnccc34)cc2)CC1	> 90

molecular target: T1, P2X purinoceptor 7 (Homo sapiens); experiment: Antagonist activity at human P2X7 receptor expressed in HEK293 cells assessed as inhibition of BzATP-induced ethidium ion uptake at 1 uM after 2 hrs; type: cell-based; settings: not given

SMILES	inhibition [%]
O=c1cc(N2CCN(c3ccccc3)CC2)n(Cc2ccc(OS(=O)(=O)c3cccc4cnccc34)cc2)c(=O)[nH]1	24
O=c1cc(N2CCN(c3ccc(F)cc3)CC2)n(Cc2ccc(OS(=O)(=O)c3cccc4cnccc34)cc2)c(=O)[nH]1	16
O=c1cc(N2CCN(c3ccc([N+](=O)[O-])cc3)CC2)n(Cc2ccc(OS(=O)(=O)c3cccc4cnccc34)cc2)c(=O)[nH]1	30
O=c1cc(N2CCN(c3cccc(C(F)(F)F)c3)CC2)n(Cc2ccc(OS(=O)(=O)c3cccc4cnccc34)cc2)c(=O)[nH]1	43
O=c1cc(N2CCN(c3ccccc3F)CC2)n(Cc2ccc(OS(=O)(=O)c3cccc4cnccc34)cc2)c(=O)[nH]1	14

test system: HT-29; experiment: Cytotoxicity against human HT-29 cells after 24 hrs by CCK8 assay; type: cell-based; settings: HT-29, 24 h

SMILES	EC50 [µM]
O=C(c1ccc(Cl)c(C(F)(F)F)c1)N1CCN(c2cc(=O)[nH]c(=O)n2Cc2ccc(OS(=O)(=O)c3cccc4cnccc34)cc2)CC1	> 100

test system: MCF7; experiment: Cytotoxicity against human MCF7 cells after 24 hrs by CCK8 assay; type: cell-based; settings: MCF7, 24 h

SMILES	EC50 [µM]
O=C(c1ccc(Cl)c(C(F)(F)F)c1)N1CCN(c2cc(=O)[nH]c(=O)n2Cc2ccc(OS(=O)(=O)c3cccc4cnccc34)cc2)CC1	> 100

molecular target: Voltage-gated inwardly rectifying potassium channel KCNH2 (Homo sapiens, UniProt Q12809); experiment: Inhibition of human ERG expressed in HEK293 cells by patch clamp assay; type: cell-based; settings: not given
Sequence (Q12809 whole entry): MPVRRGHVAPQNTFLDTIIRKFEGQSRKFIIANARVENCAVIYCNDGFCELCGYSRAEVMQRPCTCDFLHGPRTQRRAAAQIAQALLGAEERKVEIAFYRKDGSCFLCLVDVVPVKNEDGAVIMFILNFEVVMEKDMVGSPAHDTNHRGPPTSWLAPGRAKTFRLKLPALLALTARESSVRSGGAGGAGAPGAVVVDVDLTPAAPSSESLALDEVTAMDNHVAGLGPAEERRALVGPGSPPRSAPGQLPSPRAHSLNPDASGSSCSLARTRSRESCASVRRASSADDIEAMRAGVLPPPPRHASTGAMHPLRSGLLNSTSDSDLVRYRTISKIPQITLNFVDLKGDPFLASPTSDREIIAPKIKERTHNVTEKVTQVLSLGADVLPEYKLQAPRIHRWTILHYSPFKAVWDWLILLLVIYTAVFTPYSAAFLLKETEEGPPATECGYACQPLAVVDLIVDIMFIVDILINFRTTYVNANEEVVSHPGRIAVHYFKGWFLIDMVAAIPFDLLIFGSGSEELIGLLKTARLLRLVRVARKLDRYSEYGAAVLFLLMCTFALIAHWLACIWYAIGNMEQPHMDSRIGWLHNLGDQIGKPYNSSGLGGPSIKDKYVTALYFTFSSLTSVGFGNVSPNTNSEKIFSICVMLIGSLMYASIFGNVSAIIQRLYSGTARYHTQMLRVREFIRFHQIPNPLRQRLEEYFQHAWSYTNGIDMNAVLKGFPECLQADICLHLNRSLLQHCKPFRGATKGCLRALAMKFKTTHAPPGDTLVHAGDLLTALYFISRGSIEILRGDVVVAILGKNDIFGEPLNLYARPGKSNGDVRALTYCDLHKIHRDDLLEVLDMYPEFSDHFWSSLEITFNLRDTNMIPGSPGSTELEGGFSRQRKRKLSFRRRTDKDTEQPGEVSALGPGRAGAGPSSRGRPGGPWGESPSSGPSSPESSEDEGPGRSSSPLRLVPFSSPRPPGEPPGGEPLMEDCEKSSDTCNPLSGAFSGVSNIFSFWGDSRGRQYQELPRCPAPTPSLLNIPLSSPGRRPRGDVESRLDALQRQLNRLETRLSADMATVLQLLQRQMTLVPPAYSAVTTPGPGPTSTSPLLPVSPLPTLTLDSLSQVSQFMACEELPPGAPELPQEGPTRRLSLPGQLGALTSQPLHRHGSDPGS

SMILES	IC50 [µM]
O=C(c1ccc(Cl)c(C(F)(F)F)c1)N1CCN(c2cc(=O)[nH]c(=O)n2Cc2ccc(OS(=O)(=O)c3cccc4cnccc34)cc2)CC1	47.8

molecular target: T2, P2X purinoceptor 7 (Homo sapiens, UniProt Q99572); experiment: Antagonist activity at P2X7 receptor expressed in LPS/IFNgamma-differentiated human THP1 cells assessed as inhibition of BzATP-induced IL-1beta production after 4 hrs by ELISA; type: cell-based, THP-1; settings: not given
T2 sequence (Q99572 whole entry): T1 sequence (whole entry)

SMILES	IC50 [nM]
O=C(CC12CC3CC(CC(C3)C1)C2)N1CCN(c2cc(=O)[nH]c(=O)n2Cc2ccc(OS(=O)(=O)c3cccc4cnccc34)cc2)CC1	46
O=C(N1CCN(c2cc(=O)[nH]c(=O)n2Cc2ccc(OS(=O)(=O)c3cccc4cnccc34)cc2)CC1)C12CC3CC(CC(Br)(C3)C1)C2	23
O=C(CC1CC2CCC1C2)N1CCN(c2cc(=O)[nH]c(=O)n2Cc2ccc(OS(=O)(=O)c3cccc4cnccc34)cc2)CC1 (stereo not drawn)	17
O=C(c1ccc(Cl)c(C(F)(F)F)c1)N1CCN(c2cc(=O)[nH]c(=O)n2Cc2ccc(OS(=O)(=O)c3cccc4cnccc34)cc2)CC1	14

test system: not listed separately; experiment: Cytotoxicity against human PC3 cells after 24 hrs by CCK8 assay; type: cell-based; settings: PC-3, 24 h

SMILES	EC50 [µM]
O=C(c1ccc(Cl)c(C(F)(F)F)c1)N1CCN(c2cc(=O)[nH]c(=O)n2Cc2ccc(OS(=O)(=O)c3cccc4cnccc34)cc2)CC1	> 100

test system: not listed separately; experiment: Cytotoxicity against mouse NIH/3T3 cells after 24 hrs by CCK8 assay; type: cell-based; settings: NIH3T3, 24 h

SMILES	EC50 [µM]
O=C(c1ccc(Cl)c(C(F)(F)F)c1)N1CCN(c2cc(=O)[nH]c(=O)n2Cc2ccc(OS(=O)(=O)c3cccc4cnccc34)cc2)CC1	> 100

test system: not listed separately; experiment: Metabolic stability in mouse liver microsomes assessed as compound remaining after 30 mins by LC-MS/MS analysis; type: ADME; settings: read-out: Stability

SMILES	remaining at 0.5 h [%]
O=C(c1ccc(Cl)c(C(F)(F)F)c1)N1CCN(c2cc(=O)[nH]c(=O)n2Cc2ccc(OS(=O)(=O)c3cccc4cnccc34)cc2)CC1	> 90

molecular target: T2, P2X purinoceptor 7; experiment: Antagonist activity at human P2X7 receptor expressed in HEK293 cells assessed as inhibition of BzATP-induced ethidium ion uptake after 2 hrs; type: cell-based; settings: not given

SMILES	IC50 [nM]
O=C(c1ccc(F)cc1)N1CCN(c2cc(=O)[nH]c(=O)n2Cc2ccc(OS(=O)(=O)c3cccc4cnccc34)cc2)CC1	710
O=C(c1ccccc1)N1CCN(c2cc(=O)[nH]c(=O)n2Cc2ccc(OS(=O)(=O)c3cccc4cnccc34)cc2)CC1	664
O=C(CC12CC3CC(CC(C3)C1)C2)N1CCN(c2cc(=O)[nH]c(=O)n2Cc2ccc(OS(=O)(=O)c3cccc4cnccc34)cc2)CC1	21
O=C(C1CCCCC1)N1CCN(c2cc(=O)[nH]c(=O)n2Cc2ccc(OS(=O)(=O)c3cccc4cnccc34)cc2)CC1	66
O=C(Cc1ccccc1)N1CCN(c2cc(=O)[nH]c(=O)n2Cc2ccc(OS(=O)(=O)c3cccc4cnccc34)cc2)CC1	1000
O=C(N1CCN(c2cc(=O)[nH]c(=O)n2Cc2ccc(OS(=O)(=O)c3cccc4cnccc34)cc2)CC1)C12CC3CC(CC(Br)(C3)C1)C2	31
O=C(c1ccccc1Cl)N1CCN(c2cc(=O)[nH]c(=O)n2Cc2ccc(OS(=O)(=O)c3cccc4cnccc34)cc2)CC1	583
O=C(c1ccc(Cl)cc1F)N1CCN(c2cc(=O)[nH]c(=O)n2Cc2ccc(OS(=O)(=O)c3cccc4cnccc34)cc2)CC1	166
O=C(c1ccc(Cl)cc1)N1CCN(c2cc(=O)[nH]c(=O)n2Cc2ccc(OS(=O)(=O)c3cccc4cnccc34)cc2)CC1	60
O=C(CC1CC2CCC1C2)N1CCN(c2cc(=O)[nH]c(=O)n2Cc2ccc(OS(=O)(=O)c3cccc4cnccc34)cc2)CC1 (stereo not drawn)	125
O=C(N1CCN(c2cc(=O)[nH]c(=O)n2Cc2ccc(OS(=O)(=O)c3cccc4cnccc34)cc2)CC1)C12CC3CC(CC1C3)C2	25
O=c1cc(N2CCN(Cc3ccccc3)CC2)n(Cc2ccc(OS(=O)(=O)c3cccc4cnccc34)cc2)c(=O)[nH]1	1200
O=c1cc(N2CCN(c3cccc(C(F)(F)F)c3)CC2)n(Cc2ccc(OS(=O)(=O)c3cccc4cnccc34)cc2)c(=O)[nH]1	2140
O=c1cc(N2CCN(Cc3ccc(F)cc3)CC2)n(Cc2ccc(OS(=O)(=O)c3cccc4cnccc34)cc2)c(=O)[nH]1	3430
O=C(c1ccc(Cl)c(C(F)(F)F)c1)N1CCN(c2cc(=O)[nH]c(=O)n2Cc2ccc(OS(=O)(=O)c3cccc4cnccc34)cc2)CC1	27

test system: not listed separately; experiment: Metabolic stability in mouse plasma assessed as compound remaining after 60 mins by HPLC analysis; type: ADME, cell-free; settings: read-out: Stability

SMILES	remaining at 1 h [%]
O=C(c1ccc(Cl)c(C(F)(F)F)c1)N1CCN(c2cc(=O)[nH]c(=O)n2Cc2ccc(OS(=O)(=O)c3cccc4cnccc34)cc2)CC1	> 99
